Results taken from patent publication US20230103791A1 (GLAXOSMITHKLINE INTELLECTUAL PROPERTY DEVELOPMENT LIMITED, priority 2019, published 2023).
Read-outs that look alike come from different tables or passages of the source.

Target: T1, human Nav1.8 (Homo sapiens, UniProt Q9Y5Y9)
T1 construct: expressed in transfected cells; host or cells: HEK293 (HEK293-Nav1.8)
Assay: Nav1.8 sodium channels assay, QPatch 48 HTX electrophysiology in HEK293-Nav1.8 cells
Format: cell-based
Procedure, shortened: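 IC50 came from 6-8 point curves of P2 current amplitude, normalized to baseline and a positive reference, and corrected for run-down using vehicle-only wells. Automated patch clamp used HEK293-Nav1.8 (with Navβ1 and TREK1) at pH 7.4 outside and CsF-based solution inside. An 8 s inactivating step at −46 mV preceded the 0 mV test pulse, repeated at 0.07 Hz.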

[1] = at least one set of experimental runs, read-out: average pIC50 value against Nav1.8 (converted)
[2] = Table 1, HEK293-Nav1.8, QPatch 48 HTX, half inactivation state voltage protocol (V1/2), single run or average of two or more runs, read-out: Nav1.8 pIC50 (converted)

T1 sequence (Q9Y5Y9 whole entry): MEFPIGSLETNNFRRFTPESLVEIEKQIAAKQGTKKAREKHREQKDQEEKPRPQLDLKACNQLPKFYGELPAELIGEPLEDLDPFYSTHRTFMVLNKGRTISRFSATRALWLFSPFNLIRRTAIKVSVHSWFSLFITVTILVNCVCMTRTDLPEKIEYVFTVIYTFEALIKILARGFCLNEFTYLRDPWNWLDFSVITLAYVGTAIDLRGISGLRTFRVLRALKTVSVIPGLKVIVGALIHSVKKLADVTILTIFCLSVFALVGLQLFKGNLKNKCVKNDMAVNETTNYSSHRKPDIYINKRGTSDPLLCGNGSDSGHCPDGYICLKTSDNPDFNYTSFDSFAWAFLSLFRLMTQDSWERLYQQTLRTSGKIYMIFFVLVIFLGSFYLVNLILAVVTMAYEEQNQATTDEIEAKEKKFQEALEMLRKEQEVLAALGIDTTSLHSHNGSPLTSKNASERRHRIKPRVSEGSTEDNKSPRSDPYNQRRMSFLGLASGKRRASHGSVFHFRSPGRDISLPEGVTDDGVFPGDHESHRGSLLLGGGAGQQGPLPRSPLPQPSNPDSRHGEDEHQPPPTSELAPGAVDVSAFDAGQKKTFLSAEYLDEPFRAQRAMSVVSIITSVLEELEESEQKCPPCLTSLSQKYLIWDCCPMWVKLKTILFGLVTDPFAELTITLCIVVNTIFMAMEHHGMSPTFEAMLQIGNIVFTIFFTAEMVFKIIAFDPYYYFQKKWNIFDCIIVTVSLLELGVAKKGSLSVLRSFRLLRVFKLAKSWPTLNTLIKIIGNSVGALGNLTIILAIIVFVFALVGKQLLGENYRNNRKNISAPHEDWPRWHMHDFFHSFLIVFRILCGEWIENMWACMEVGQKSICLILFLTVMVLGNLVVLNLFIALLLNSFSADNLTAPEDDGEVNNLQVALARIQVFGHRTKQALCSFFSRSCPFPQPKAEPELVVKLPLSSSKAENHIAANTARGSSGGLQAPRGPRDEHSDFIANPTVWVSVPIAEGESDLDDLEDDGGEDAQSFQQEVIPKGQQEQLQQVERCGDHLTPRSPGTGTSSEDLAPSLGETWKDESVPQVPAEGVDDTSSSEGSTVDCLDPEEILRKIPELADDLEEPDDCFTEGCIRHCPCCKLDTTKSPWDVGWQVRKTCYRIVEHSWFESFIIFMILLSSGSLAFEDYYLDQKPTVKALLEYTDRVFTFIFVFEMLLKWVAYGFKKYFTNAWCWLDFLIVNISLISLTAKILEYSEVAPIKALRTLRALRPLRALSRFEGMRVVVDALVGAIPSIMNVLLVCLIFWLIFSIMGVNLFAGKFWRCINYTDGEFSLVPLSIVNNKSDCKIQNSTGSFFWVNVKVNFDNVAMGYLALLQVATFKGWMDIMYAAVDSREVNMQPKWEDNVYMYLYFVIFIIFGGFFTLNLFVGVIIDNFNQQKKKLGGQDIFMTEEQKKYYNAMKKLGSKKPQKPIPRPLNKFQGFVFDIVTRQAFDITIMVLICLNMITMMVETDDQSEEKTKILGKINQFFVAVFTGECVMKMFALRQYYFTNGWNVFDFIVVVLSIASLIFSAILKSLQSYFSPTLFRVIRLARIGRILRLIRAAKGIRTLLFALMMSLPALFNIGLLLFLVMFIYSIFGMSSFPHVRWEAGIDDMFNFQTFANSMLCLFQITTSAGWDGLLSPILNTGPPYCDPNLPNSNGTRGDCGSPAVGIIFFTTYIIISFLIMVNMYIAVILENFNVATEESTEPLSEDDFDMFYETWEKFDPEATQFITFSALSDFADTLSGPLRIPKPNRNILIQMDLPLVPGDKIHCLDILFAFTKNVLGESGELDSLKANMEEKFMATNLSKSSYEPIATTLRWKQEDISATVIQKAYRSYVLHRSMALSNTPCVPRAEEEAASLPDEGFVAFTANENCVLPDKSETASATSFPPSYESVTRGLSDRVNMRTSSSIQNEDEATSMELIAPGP
T1 sequence (Q07699 19-218 partner): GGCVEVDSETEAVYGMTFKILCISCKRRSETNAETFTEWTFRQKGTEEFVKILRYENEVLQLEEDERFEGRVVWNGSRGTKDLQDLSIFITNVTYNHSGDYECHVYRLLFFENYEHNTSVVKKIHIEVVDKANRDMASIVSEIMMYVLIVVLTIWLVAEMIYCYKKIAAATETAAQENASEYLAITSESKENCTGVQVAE

Structure (SMILES) | IC50 [1] | IC50 [2]
Cc1cc(O)ccc1N1CN(c2ccc(F)cc2C)c2ccc(C(F)(F)F)cc2C1=O [Example 266, 1-(4-Fluoro-2-methylphenyl)-3-(4-hydroxy-2-methylphenyl)-6-(trifluoromethyl)-2,3-dihydroquinazolin-4(1H)-one] | 794 to 7940 nM | –
Cc1cc(O)ccc1N1CN(c2ccc(F)cc2C)c2cc(C(F)(F)F)ccc2C1=O [Example 267, 1-(4-Fluoro-2-methylphenyl)-3-(4-hydroxy-2-methylphenyl)-7-(trifluoromethyl)-2,3-dihydroquinazolin-4(1H)-one] | 794 to 7940 nM | –
Cc1cc(F)ccc1N1CN(C2CCC(=O)NC2)C(=O)c2ccc(C(F)(F)F)cc21 (stereo not shown) [Example 268] | 126 to 631 nM | –
CC1=C(N2CN(c3ccc(F)cc3C)c3cc(C(F)(F)F)ccc3C2=O)CCC(=O)N1 [Example 269, 1-(4-fluoro-2-methylphenyl)-3-(2-methyl-6-oxo-1,4,5,6-tetrahydropyridin-3-yl)-7-(trifluoromethyl)-2,3-dihydroquinazolin-4(1H)-one] | ≤ 100 nM | –
Cc1cc(F)ccc1N1CN(C2CNC(=O)NC2)C(=O)c2ccc(C(F)(F)F)cc21 [Example 270, 1-(4-fluoro-2-methylphenyl)-3-(2-oxohexahydro-pyrimidin-5-yl)-7-(trifluoromethyl)-2,3-dihydroquinazolin-4(1H)-one] | 126 to 631 nM | –
CC1=C(N2CN(c3ccc(F)cc3C)c3cc(C(F)(F)F)ccc3C2=O)CNC(=O)N1 [Example 271, 1-(4-fluoro-2-methylphenyl)-3-(6-methyl-2-oxo-1,2,3,4-tetrahydro-pyrimidin-5-yl)-7-(trifluoromethyl)-2,3-dihydroquinazolin-4(1H)-one] | ≤ 100 nM | –
Cc1cc(N)ncc1N1CN(c2ccc(F)cc2C)c2ccc(C(F)(F)F)cc2C1=O [Example 277, 3-(6-Amino-4-methylpyridin-3-yl)-1-(4-fluoro-2-methylphenyl)-6-(trifluoromethyl)-2,3-dihydroquinazolin-4(1H)-one] | 126 to 631 nM | –
Cc1[nH]c(=O)ccc1N1CN([C@@H]2CCCC[C@H]2C)c2cc(C(F)(F)F)ccc2C1=O [Example 280, 3-(2-Methyl-6-oxo-1,6-dihydropyridin-3-yl)-1-((1R,2R)-2-methylcyclohexyl)-7-(trifluoromethyl)-2,3-dihydroquinazolin-4(1H)-one] | 126 to 631 nM | –
Cc1[nH]c(=O)ccc1N1CN([C@@H]2CCOC[C@@H]2C)c2cc(C(F)(F)F)ccc2C1=O [Example 282, 3-(2-Methyl-6-oxo-1,6-dihydropyridin-3-yl)-1-((3R,4R)-3-methyltetrahydro-2H-pyran-4-yl)-7-(trifluoromethyl)-2,3-dihydroquinazolin-4(1H)-one] | 794 to 7940 nM | –
Cc1[nH]c(=O)ccc1N1CN([C@H]2CCOC[C@@H]2C)c2cc(C(F)(F)F)ccc2C1=O [Example 283, 3-(2-Methyl-6-oxo-1,6-dihydropyridin-3-yl)-1-((3R,4S)-3-methyltetrahydro-2H-pyran-4-yl)-7-(trifluoromethyl)-2,3-dihydroquinazolin-4(1H)-one] | 126 to 631 nM | –
Cc1cc(F)ccc1N1CN(c2ccc(=O)[nH]c2C)C(=O)c2cc(C(F)(F)F)ccc21 [Example 297, 1-(4-fluoro-2-methylphenyl)-3-(2-methyl-6-oxo-1,6-dihydropyridin-3-yl)-6-(trifluoromethyl)-2,3-dihydroquinazolin-4(1H)-one] | ≤ 100 nM | –
Cc1cc(OC(F)(F)F)ccc1N1CN(c2ccc(=O)[nH]c2C)C(=O)c2cc(C(F)(F)F)cnc21 [Example 298, 1-(2-methyl-4-(trifluoromethoxy)phenyl)-3-(2-methyl-6-oxo-1,6-dihydropyridin-3-yl)-6-(trifluoromethyl)-2,3-dihydropyrido[2,3-d]pyrimidin-4(1H)-one] | ≤ 100 nM | –
Cc1cc(F)ccc1N1CN(c2ccc(=O)[nH]c2)C(=O)c2ccc(C(F)(F)F)cc21 [drawing 261, 1-(4-fluoro-2-methylphenyl)-3-(6-oxo-1,6-dihydropyridin-3-yl)-7-(trifluoromethyl)-2,3-dihydroquinazolin-4(1H)-one] | – | 126 nM
COc1cc(F)ccc1N1CN(c2ccc(=O)[nH]c2)C(=O)c2ccc(C(F)(F)F)cc21 [drawing 264, 1-(4-fluoro-2-methoxyphenyl)-3-(6-oxo-1,6-dihydropyridin-3-yl)-7-(trifluoromethyl)-2,3-dihydroquinazolin-4(1H)-one] | – | 316 nM
Cc1cc(F)ccc1N1CN(c2ccc(=O)n(C)c2)C(=O)c2ccc(C(F)(F)F)cc21 [drawing 265] | – | 2000 nM
Cc1cc(F)ccc1N1CN(c2ccc(=O)[nH]c2C)C(=O)c2cc(C(F)(F)F)cnc21 [drawing 266, 1-(4-fluoro-2-methylphenyl)-3-(2-methyl-6-oxo-1,6-dihydropyridin-3-yl)-6-(trifluoromethyl)-2,3-dihydropyrido[2,3-d]pyrimidin-4(1H)-one] | – | 158 nM
Cc1cc(F)ccc1N1CN(c2ccc(=O)[nH]c2)C(=O)c2c1cccc2C(F)(F)F [drawing 267, 1-(4-fluoro-2-methylphenyl)-3-(6-oxo-1,6-dihydropyridin-3-yl)-5-(trifluoromethyl)-2,3-dihydroquinazolin-4(1H)-one] | – | 2510 nM
Cc1cc(F)ccc1N1CN(c2c[nH]c(=O)c(C)c2)C(=O)c2ccc(C(F)(F)F)cc21 [drawing 271, 1-(4-fluoro-2-methylphenyl)-3-(5-methyl-6-oxo-1,6-dihydropyridin-3-yl)-7-(trifluoromethyl)-2,3-dihydroquinazolin-4(1H)-one] | – | 631 nM
O=C1c2ccc(C(F)(F)F)cc2N(Cc2ccc(F)cc2)CN1c1ccc(=O)[nH]c1 [drawing 272, 1-(4-fluorobenzyl)-3-(6-oxo-1,6-dihydropyridin-3-yl)-7-(trifluoromethyl)-2,3-dihydroquinazolin-4(1H)-one] | – | 7940 nM
Cc1cc(=O)[nH]cc1N1CN(c2ccc(F)cc2C)c2cc(C(F)(F)F)ccc2C1=O [drawing 273, 1-(4-fluoro-2-methylphenyl)-3-(4-methyl-6-oxo-1,6-dihydropyridin-3-yl)-7-(trifluoromethyl)-2,3-dihydroquinazolin-4(1H)-one] | – | 398 nM

Continued, values first:

IC50 [1] | IC50 [2] | Structure (SMILES)
≤ 100 nM | – | Cc1[nH]c(=O)ccc1N1CN([C@H]2CCCC[C@@H]2C)c2cc(C(F)(F)F)ccc2C1=O [Example 279, 3-(2-Methyl-6-oxo-1,6-dihydropyridin-3-yl)-1-((1S,2S)-2-methylcyclohexyl)-7-(trifluoromethyl)-2,3-dihydroquinazolin-4(1H)-one]
126 to 631 nM | – | Cc1[nH]c(=O)ccc1N1CN([C@H]2CCOC[C@H]2C)c2cc(C(F)(F)F)ccc2C1=O [Example 281, 3-(2-Methyl-6-oxo-1,6-dihydropyridin-3-yl)-1-((3S,4S)-3-methyltetrahydro-2H-pyran-4-yl)-7-(trifluoromethyl)-2,3-dihydroquinazolin-4(1H)-one]
794 to 7940 nM | – | Cc1[nH]c(=O)ccc1N1CN([C@@H]2CCOC[C@H]2C)c2cc(C(F)(F)F)ccc2C1=O [Example 284, 3-(2-Methyl-6-oxo-1,6-dihydropyridin-3-yl)-1-((3S,4R)-3-methyltetrahydro-2H-pyran-4-yl)-7-(trifluoromethyl)-2,3-dihydroquinazolin-4(1H)-one]
794 to 7940 nM | – | Cc1cc(F)ccc1N1CN([C@H]2CCC(=O)N[C@H]2C)C(=O)c2ccc(C(F)(F)F)cc21 [Example 287, 1-(4-Fluoro-2-methylphenyl)-3-((2S,3S)-2-methyl-6-oxopiperidin-3-yl)-7-(trifluoromethyl)-2,3-dihydroquinazolin-4(1H)-one]
126 to 631 nM | – | Cc1cc(F)ccc1N1CN([C@@H]2CCC(=O)N[C@@H]2C)C(=O)c2ccc(C(F)(F)F)cc21 [Example 288, 1-(4-Fluoro-2-methylphenyl)-3-((2R,3R)-2-methyl-6-oxopiperidin-3-yl)-7-(trifluoromethyl)-2,3-dihydroquinazolin-4(1H)-one]
126 to 631 nM | – | Cc1cc(F)ccc1N1CN(c2ccc(=O)[nH]c2C)C(=O)c2cc(C(F)(F)F)cnc21 [Example 299, 1-(4-fluoro-2-methylphenyl)-3-(2-methyl-6-oxo-1,6-dihydropyridin-3-yl)-6-(trifluoromethyl)-2,3-dihydropyrido[2,3-d]pyrimidin-4(1H)-one]
– | 398 nM | O=C1c2ccc(C(F)(F)F)cc2N(c2ccc(F)cc2)CN1c1ccc(=O)[nH]c1 [drawing 262, 1-(4-fluorophenyl)-3-(6-oxo-1,6-dihydropyridin-3-yl)-7-(trifluoromethyl)-2,3-dihydroquinazolin-4(1H)-one]
– | 6310 nM | O=C1c2ccc(C(F)(F)F)cc2N(C2CCCCC2)CN1c1ccc(=O)[nH]c1 [drawing 263, 1-cyclohexyl-3-(6-oxo-1,6-dihydropyridin-3-yl)-7-(trifluoromethyl)-2,3-dihydroquinazolin-4(1H)-one]
– | 20 nM | Cc1cc(F)ccc1N1CN(c2ccc(=O)[nH]c2C)C(=O)c2ccc(C(F)(F)F)cc21 [drawing 268, 1-(4-fluoro-2-methylphenyl)-3-(2-methyl-6-oxo-1,6-dihydropyridin-3-yl)-7-(trifluoromethyl)-2,3-dihydroquinazolin-4(1H)-one]
– | 316 nM | Cc1cc(F)ccc1N1CN(c2ccc(=O)[nH]c2)C(=O)c2cc(C(F)(F)F)ccc21 [drawing 269, 1-(4-fluoro-2-methylphenyl)-3-(6-oxo-1,6-dihydropyridin-3-yl)-6-(trifluoromethyl)-2,3-dihydroquinazolin-4(1H)-one]
– | 2510 nM | Cc1cc(F)cc(C)c1N1CN(c2ccc(=O)[nH]c2)C(=O)c2ccc(C(F)(F)F)cc21 [drawing 270, 1-(4-fluoro-2,6-dimethylphenyl)-3-(6-oxo-1,6-dihydropyridin-3-yl)-7-(trifluoromethyl)-2,3-dihydroquinazolin-4(1H)-one]
